Reference: ChEMBL document CHEMBL2321769, “Regioselective synthesis of 5- and 6-methoxybenzimidazole-1,3,5-triazines as inhibitors of phosphoinositide 3-kinase” (Bioorg Med Chem Lett, 2013)

Columns and labels:
[1] = target: Phosphatidylinositol 4,5-bisphosphate 3-kinase catalytic subunit beta isoform (Homo sapiens, UniProt P42338); assay: Inhibition of PI3Kbeta (unknown origin) expressed in SF21 cells using phosphatidylinositol as substrate after 60 mins by Kinase-Glo assay
[2] = target: Phosphatidylinositol 4,5-bisphosphate 3-kinase catalytic subunit gamma isoform (Homo sapiens, UniProt P48736); assay: Inhibition of PI3Kgamma (unknown origin) expressed in SF21 cells using phosphatidylinositol as substrate after 60 mins by Kinase-Glo assay
[3] = target: T1, Phosphatidylinositol 4,5-bisphosphate 3-kinase catalytic subunit delta isoform (Homo sapiens, UniProt O00329); assay: Inhibition of PI3Kdelta (unknown origin) expressed in SF21 cells using phosphatidylinositol as substrate after 60 mins by Kinase-Glo assay
T1 sequence (O00329 whole entry): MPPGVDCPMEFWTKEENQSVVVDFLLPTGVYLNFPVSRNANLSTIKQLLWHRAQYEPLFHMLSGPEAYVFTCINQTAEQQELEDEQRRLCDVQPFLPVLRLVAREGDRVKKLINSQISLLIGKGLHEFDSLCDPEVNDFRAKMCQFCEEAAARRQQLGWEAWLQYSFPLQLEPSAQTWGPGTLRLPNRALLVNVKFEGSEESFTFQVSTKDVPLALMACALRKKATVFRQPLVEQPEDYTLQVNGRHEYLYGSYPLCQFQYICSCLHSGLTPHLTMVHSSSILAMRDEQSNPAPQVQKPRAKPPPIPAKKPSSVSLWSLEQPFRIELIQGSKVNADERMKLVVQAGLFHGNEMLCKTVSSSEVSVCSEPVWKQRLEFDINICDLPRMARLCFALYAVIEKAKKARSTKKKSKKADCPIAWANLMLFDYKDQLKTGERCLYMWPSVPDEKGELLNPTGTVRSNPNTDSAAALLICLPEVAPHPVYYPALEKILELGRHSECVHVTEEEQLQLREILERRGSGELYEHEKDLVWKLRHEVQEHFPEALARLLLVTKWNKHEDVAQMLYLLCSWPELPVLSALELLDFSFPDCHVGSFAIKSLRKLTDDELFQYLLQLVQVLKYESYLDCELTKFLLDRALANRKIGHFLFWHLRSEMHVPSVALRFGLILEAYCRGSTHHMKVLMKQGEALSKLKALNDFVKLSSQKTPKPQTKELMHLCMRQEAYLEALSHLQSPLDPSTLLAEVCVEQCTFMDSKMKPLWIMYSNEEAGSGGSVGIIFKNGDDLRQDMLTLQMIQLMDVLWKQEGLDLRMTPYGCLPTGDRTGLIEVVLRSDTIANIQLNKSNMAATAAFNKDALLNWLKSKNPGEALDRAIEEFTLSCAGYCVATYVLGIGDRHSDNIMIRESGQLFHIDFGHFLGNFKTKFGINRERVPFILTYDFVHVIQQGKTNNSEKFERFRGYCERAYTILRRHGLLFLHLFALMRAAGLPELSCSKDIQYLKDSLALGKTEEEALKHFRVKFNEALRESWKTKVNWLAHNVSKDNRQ

[4] = target: Phosphatidylinositol 4,5-bisphosphate 3-kinase catalytic subunit alpha isoform (Homo sapiens, UniProt P42336); assay: Inhibition of PI3Kalpha (unknown origin) expressed in SF21 cells using phosphatidylinositol as substrate after 60 mins by Kinase-Glo assay
Sequence of Phosphatidylinositol 4,5-bisphosphate 3-kinase catalytic subunit alpha isoform (P42336 whole entry, canonical isoform): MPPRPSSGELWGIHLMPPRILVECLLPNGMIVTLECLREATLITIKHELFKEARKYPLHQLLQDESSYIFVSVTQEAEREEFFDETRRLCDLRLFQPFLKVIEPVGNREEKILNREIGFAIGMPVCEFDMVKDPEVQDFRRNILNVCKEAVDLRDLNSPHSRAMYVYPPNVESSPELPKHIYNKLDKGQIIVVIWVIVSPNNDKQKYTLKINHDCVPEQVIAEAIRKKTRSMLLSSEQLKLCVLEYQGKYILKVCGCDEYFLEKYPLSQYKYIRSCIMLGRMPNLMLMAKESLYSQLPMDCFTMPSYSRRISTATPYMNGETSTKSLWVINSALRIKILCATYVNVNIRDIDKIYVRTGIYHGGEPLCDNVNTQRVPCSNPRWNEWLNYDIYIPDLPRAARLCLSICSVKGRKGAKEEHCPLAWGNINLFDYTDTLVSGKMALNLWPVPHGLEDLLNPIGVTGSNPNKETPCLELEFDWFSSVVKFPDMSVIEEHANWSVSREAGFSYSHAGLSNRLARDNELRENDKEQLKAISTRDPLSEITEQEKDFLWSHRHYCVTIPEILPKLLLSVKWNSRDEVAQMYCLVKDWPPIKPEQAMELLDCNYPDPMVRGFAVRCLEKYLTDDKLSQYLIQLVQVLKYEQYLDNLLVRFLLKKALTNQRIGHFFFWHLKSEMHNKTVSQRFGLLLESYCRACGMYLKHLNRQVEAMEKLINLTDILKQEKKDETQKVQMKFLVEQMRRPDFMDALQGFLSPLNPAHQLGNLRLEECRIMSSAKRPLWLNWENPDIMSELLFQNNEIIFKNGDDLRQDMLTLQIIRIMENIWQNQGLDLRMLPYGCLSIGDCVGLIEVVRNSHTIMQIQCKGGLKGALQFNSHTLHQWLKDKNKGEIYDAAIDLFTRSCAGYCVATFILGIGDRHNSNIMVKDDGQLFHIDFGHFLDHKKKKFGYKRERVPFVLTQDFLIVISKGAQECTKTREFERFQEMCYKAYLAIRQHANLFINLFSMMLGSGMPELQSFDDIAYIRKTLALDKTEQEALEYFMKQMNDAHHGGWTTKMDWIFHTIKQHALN

Sequence of Phosphatidylinositol 4,5-bisphosphate 3-kinase catalytic subunit gamma isoform (P48736 whole entry, canonical isoform): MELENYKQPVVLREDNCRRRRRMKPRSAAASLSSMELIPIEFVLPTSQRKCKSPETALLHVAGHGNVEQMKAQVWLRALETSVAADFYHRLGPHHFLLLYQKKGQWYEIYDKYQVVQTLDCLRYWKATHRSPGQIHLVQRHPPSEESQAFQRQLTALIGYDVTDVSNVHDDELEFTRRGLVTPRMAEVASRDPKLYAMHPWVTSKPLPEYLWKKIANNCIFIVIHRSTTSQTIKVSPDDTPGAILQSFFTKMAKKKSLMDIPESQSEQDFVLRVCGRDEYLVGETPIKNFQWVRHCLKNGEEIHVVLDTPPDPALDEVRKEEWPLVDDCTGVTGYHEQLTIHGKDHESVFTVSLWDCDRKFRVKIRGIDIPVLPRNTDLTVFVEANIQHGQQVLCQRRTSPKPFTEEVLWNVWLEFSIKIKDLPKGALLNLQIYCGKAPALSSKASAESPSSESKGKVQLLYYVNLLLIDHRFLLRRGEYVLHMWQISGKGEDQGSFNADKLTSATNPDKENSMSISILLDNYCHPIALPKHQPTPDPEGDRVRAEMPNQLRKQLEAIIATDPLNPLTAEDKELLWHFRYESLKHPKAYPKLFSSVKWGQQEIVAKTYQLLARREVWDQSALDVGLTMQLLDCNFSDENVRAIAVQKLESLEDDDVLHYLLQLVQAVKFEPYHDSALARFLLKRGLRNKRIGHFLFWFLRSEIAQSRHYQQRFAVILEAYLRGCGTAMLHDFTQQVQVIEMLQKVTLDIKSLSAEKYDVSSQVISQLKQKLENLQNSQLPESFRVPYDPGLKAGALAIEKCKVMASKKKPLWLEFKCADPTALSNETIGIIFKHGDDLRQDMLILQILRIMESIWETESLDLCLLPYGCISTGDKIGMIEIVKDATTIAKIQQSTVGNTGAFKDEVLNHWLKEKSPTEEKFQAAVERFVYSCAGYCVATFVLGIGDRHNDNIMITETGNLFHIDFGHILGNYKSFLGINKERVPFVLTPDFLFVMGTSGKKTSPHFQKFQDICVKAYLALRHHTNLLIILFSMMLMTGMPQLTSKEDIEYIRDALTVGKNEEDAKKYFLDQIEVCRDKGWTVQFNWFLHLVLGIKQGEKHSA
Sequence of Phosphatidylinositol 4,5-bisphosphate 3-kinase catalytic subunit beta isoform (P42338 whole entry, canonical isoform): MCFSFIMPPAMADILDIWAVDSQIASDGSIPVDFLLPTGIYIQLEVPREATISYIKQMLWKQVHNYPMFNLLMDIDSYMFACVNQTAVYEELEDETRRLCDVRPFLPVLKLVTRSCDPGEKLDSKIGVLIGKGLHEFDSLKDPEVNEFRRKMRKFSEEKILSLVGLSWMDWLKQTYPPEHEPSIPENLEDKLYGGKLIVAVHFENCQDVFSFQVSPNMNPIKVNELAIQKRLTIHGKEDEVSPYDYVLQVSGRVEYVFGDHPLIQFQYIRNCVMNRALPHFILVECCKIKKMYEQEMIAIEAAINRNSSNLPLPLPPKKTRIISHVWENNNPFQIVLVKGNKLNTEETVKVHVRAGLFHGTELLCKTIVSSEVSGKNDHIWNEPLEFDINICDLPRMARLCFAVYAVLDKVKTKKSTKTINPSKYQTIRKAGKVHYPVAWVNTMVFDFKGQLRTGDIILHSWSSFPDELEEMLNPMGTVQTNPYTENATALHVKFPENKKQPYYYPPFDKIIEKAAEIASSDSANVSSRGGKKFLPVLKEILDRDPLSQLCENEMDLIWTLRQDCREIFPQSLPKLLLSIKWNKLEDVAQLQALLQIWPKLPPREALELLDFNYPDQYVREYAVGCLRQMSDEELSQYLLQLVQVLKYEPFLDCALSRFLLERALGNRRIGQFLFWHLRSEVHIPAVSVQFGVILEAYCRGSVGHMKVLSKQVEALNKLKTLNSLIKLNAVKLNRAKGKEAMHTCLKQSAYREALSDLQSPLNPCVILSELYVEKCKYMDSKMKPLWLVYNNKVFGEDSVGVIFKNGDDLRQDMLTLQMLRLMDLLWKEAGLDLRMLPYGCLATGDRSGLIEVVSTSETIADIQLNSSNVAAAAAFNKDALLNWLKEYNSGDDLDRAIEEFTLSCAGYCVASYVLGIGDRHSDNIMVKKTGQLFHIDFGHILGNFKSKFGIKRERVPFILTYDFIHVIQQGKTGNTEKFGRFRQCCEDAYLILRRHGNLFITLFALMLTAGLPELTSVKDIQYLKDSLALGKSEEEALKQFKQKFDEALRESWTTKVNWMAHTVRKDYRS

| SMILES | IC50 [1] [nM] | IC50 [2] [nM] | IC50 [3] [nM] | IC50 [4] [nM] |
| --- | --- | --- | --- | --- |
| COc1ccc2nc(C(F)F)n(-c3nc(N4CCOCC4)nc(N4CCOCC4)n3)c2c1 | 214 | > 10000 | 110 | 375 |
| CC(C)c1nc2ccccc2n1-c1nc(N2CCOCC2)nc(N2CCOCC2)n1 | 419 | 2530 | 128 | 431 |
| COc1ccc2c(c1)nc(C)n2-c1nc(N2CCOCC2)nc(N2CCOCC2)n1 | > 10000 | > 10000 | 2770 | 9200 |
| Cc1nc2ccccc2n1-c1nc(N2CCOCC2)nc(N2CCOCC2)n1 | 523 | 1860 | 187 | 290 |
| COc1ccc2nc(C)n(-c3nc(N4CCOCC4)nc(N4CCOCC4)n3)c2c1 | 1790 | > 10000 | 458 | 823 |

The next lines start with the values.

| IC50 [1] [nM] | IC50 [2] [nM] | IC50 [3] [nM] | IC50 [4] [nM] | SMILES |
| --- | --- | --- | --- | --- |
| > 10000 | > 10000 | > 1000 | > 5000 | COc1ccc2c(c1)nc(C(F)F)n2-c1nc(N2CCOCC2)nc(N2CCOCC2)n1 |
| 726 | > 10000 | 423 | 1050 | COc1ccc2nc(C(C)C)n(-c3nc(N4CCOCC4)nc(N4CCOCC4)n3)c2c1 |
| > 10000 | > 10000 | 1120 | > 10000 | COc1ccc2c(c1)nc(C(C)C)n2-c1nc(N2CCOCC2)nc(N2CCOCC2)n1 |
